Laboratory results taken from patent US20180370927A1, “MICROBIOCIDAL OXADIAZOLE DERIVATIVES” (SYNGENTA PARTICIPATIONS AG, priority 2015, published 2018).

Tests used:
[1] = test system: Glomerella lacenarium (Colletotrichum lacenarium); assay: Glomerella lacenarium (Colletotrichum lacenarium) liquid culture / cucumber / preventative (anthracnose); assay type: cell-based; details: 20 ppm in the applied formulation, liquid culture in PDB, 24° C., 3 to 4 days after application, read-out: disease control (inhibition of growth, photometric) compared to untreated control
Protocol: Mycelia fragments or conidia suspensions of a fungus prepared either freshly from liquid cultures of the fungus or from cryogenic storage, are directly mixed into nutrient broth. DMSO solutions of the test compound (max. 10 mg/ml) are diluted with 0.025% Tween20 by a factor of 50 and 10 μL of this solution is pipetted into a microtiter plate (96-well format). The nutrient broth containing the fungal spores/mycelia fragments is then added to give an end concentration of the tested compound. The test plates are incubated in the dark at 24° C. and 96% relative humidity. The inhibition of fungal growth is determined photometrically after 2 to 7 days, depending on the pathosystem, and percent antifungal activity relative to the untreated check is calculated.
Example 4: Fungicidal Activity Against Glomerella lacenarium (Colletotrichum lacenarium) Liquid Culture/Cucumber/Preventative (Anthracnose)
Conidia of the fungus from cryogenic storage are directly mixed into nutrient broth (PDB—potato dextrose broth). After placing a (DMSO) solution of test compound into a microtiter plate (96-well format), the nutrient broth containing the fungal spores is added. The test plates are incubated at 24° C. and the inhibition of growth is measured photometrically 3 to 4 days after application.
The following compounds at 20 ppm in the applied formulation give at least 80% disease control in this test when compared to untreated control under the same conditions, which show extensive disease development.

[2] = test system: Puccinia recondita f. Sp. Tritici; assay: Puccinia recondita f. sp. tritici / wheat / leaf disc curative (brown rust); assay type: in vivo; details: foliar, 200 ppm in the applied formulation, wheat leaf segments, curative (applied 1 day after inoculation), assessed 6 to 8 days after application, read-out: disease control compared to untreated control leaf disks
Protocol: (§1) Leaf disks or leaf segments of various plant species are cut from plants grown in a greenhouse. The cut leaf disks or segments are placed in multiwell plates (24-well format) onto water agar. The leaf disks are sprayed with a test solution before (preventative) or after (curative) inoculation. Compounds to be tested are prepared as DMSO solutions (max. 10 mg/mL) which are diluted to the appropriate concentration with 0.025% Tween20 just before spraying. The inoculated leaf disks or segments are incubated under defined conditions (temperature, relative humidity, light, etc.) according to the respective test system. A single evaluation of disease level is carried out 3 to 14 days after inoculation, depending on the pathosystem. Percent disease control relative to the untreated check leaf disks or segments is then calculated.
Example 2: Fungicidal Activity Against Puccinia recondita f. Sp. Tritici/Wheat/Leaf Disc Curative (Brown Rust)
Wheat leaf segments cv. Kanzler are placed on agar in multiwell plates (24-well format). The leaf segments are then inoculated with a spore suspension of the fungus. Plates were stored in darkness at 19° C. and 75% relative humidity. The formulated test compound diluted in water was applied 1 day after inoculation. The leaf segments were incubated at 19° C. and 75% relative humidity under a light regime of 12 hours light/12 hours darkness in a climate cabinet and the activity of a compound was assessed as percent disease control compared to untreated when an appropriate level of disease damage appears in untreated check leaf segments (6 to 8 days after application).
(§2) The following compounds at 200 ppm in the applied formulation give at least 80% disease control in this test when compared to untreated control leaf disks under the same conditions, which show extensive disease development.

[3] = test system: Puccinia recondita f. Sp. Tritici; assay: Puccinia recondita f. sp. tritici / wheat / leaf disc preventative (brown rust); assay type: in vivo; details: foliar, 200 ppm in the applied formulation, wheat leaf segments, preventative, assessed 7 to 9 days after application, read-out: disease control compared to untreated control leaf disks
Protocol: as §1
Example 1: Fungicidal Activity Against Puccinia recondita f. Sp. Tritici/Wheat/Leaf Disc Preventative (Brown Rust)
Wheat leaf segments cv. Kanzler were placed on agar in multiwell plates (24-well format) and sprayed with the formulated test compound diluted in water. The leaf disks were inoculated with a spore suspension of the fungus 1 day after application. The inoculated leaf segments were incubated at 19° C. and 75% relative humidity (rh) under a light regime of 12 hours light/12 hours darkness in a climate cabinet and the activity of a compound was assessed as percent disease control compared to untreated when an appropriate level of disease damage appears in untreated check leaf segments (7 to 9 days after application).
as §2

CON(Cc1ccc(-c2noc(C(F)(F)F)n2)cc1)C(=O)C(=O)OC1COC1 [Compound 3.3, oxetan-3-yl 2-[methoxy-[[4-[5-(trifluoromethyl)-1,2,4-oxadiazol-3-yl]phenyl]methyl]amino]-2-oxo-acetate]
≥ 80%: inhibition at 20 ppm [1] | pest or weed control at 200 ppm [2] | pest or weed control at 200 ppm [3]

CC(=O)C(=O)N(Cc1ccc(-c2noc(C(F)(F)F)n2)cc1)CC1CCCO1 (stereo not drawn) [Compound 1.14, 2-oxo-N-(tetrahydrofuran-2-ylmethyl)-N-[[4-[5-(trifluoromethyl)-1,2,4-oxadiazol-3-yl]phenyl]methyl]propanamide]
≥ 80%: inhibition at 20 ppm [1] | pest or weed control at 200 ppm [2] | pest or weed control at 200 ppm [3]

CC(C)NC(=O)C(=O)NCc1ccc(-c2noc(C(F)(F)F)n2)cc1 [Compound 4.46, N′-isopropyl-N-[[4-[5-(trifluoromethyl)-1,2,4-oxadiazol-3-yl]phenyl]methyl] oxamide]
≥ 80%: inhibition at 20 ppm [1] | pest or weed control at 200 ppm [2] | pest or weed control at 200 ppm [3]

CONC(=O)C(=O)N(C)Cc1ccc(-c2noc(C(F)(F)F)n2)cc1 [Compound 4.102, N-methoxy-N′-methyl-N′-[[4-[5-(trifluoromethyl)-1,2,4-oxadiazol-3-yl]phenyl]methyl] oxamide]
≥ 80%: inhibition at 20 ppm [1] | pest or weed control at 200 ppm [2] | pest or weed control at 200 ppm [3]

CC(=O)C(=O)NCc1ccc(-c2noc(C(F)(F)F)n2)c(F)c1 [Compound 1.25, N-[[3-fluoro-4-[5-(trifluoromethyl)-1,2,4-oxadiazol-3-yl]phenyl]methyl]-2-oxo-propanamide]
≥ 80%: inhibition at 20 ppm [1] | pest or weed control at 200 ppm [2] | pest or weed control at 200 ppm [3]

CCC(C)N(Cc1ccc(-c2noc(C(F)(F)F)n2)cc1)C(=O)C(N)=O (stereo not drawn) [Compound 4.13, N′-sec-butyl-N′-[[4-[5-(trifluoromethyl)-1,2,4-oxadiazol-3-yl]phenyl]methyl] oxamide]
≥ 80%: inhibition at 20 ppm [1] | pest or weed control at 200 ppm [2] | pest or weed control at 200 ppm [3]

CON(Cc1ccc(-c2noc(C(F)(F)F)n2)cc1)C(=O)C(=O)NC(C)C [Compound 4.64, N-isopropyl-N′-methoxy-N′-[[4-[5-(trifluoromethyl)-1,2,4-oxadiazol-3-yl]phenyl]methyl] oxamide]
≥ 80%: inhibition at 20 ppm [1] | pest or weed control at 200 ppm [2] | pest or weed control at 200 ppm [3]

CON(Cc1ccc(-c2noc(C(F)(F)F)n2)cc1)C(=O)C(=O)NCC(C)(C)C [Compound 4.62, N-(2,2-dimethylpropyl)-N′-methoxy-N′-[[4-[5-(trifluoromethyl)-1,2,4-oxadiazol-3-yl]phenyl]methyl] oxamide]
≥ 80%: inhibition at 20 ppm [1] | pest or weed control at 200 ppm [2] | pest or weed control at 200 ppm [3]

CCCONC(=O)C(=O)NCc1ccc(-c2noc(C(F)(F)F)n2)cc1 [Compound 4.42, N′-propoxy-N-[[4-[5-(trifluoromethyl)-1,2,4-oxadiazol-3-yl]phenyl]methyl] oxamide]
≥ 80%: inhibition at 20 ppm [1] | pest or weed control at 200 ppm [2] | pest or weed control at 200 ppm [3]

CCC(=O)C(=O)NCc1ccc(-c2noc(C(F)(F)F)n2)cc1C [Compound 1.85, N-[[2-methyl-4-[5-(trifluoromethyl)-1,2,4-oxadiazol-3-yl]phenyl]methyl]-2-oxo-butanamide]
≥ 80%: inhibition at 20 ppm [1] | pest or weed control at 200 ppm [2] | pest or weed control at 200 ppm [3]

CCCC(=O)C(=O)N(Cc1ccc(-c2noc(C(F)(F)F)n2)cc1)Cc1ccco1 [Compound 1.15, N-(2-furylmethyl)-2-oxo-N-[[4-[5-(trifluoromethyl)-1,2,4-oxadiazol-3-yl]phenyl]methyl]pentanamide]
≥ 80%: inhibition at 20 ppm [1] | pest or weed control at 200 ppm [2] | pest or weed control at 200 ppm [3]

CON(C)C(=O)C(=O)NCc1ccc(-c2noc(C(F)(F)F)n2)cc1 [Compound 4.48, N′-methoxy-N′-methyl-N-[[4-[5-(trifluoromethyl)-1,2,4-oxadiazol-3-yl]phenyl]methyl] oxamide]
≥ 80%: inhibition at 20 ppm [1] | pest or weed control at 200 ppm [2] | pest or weed control at 200 ppm [3]

CNC(=O)C(=O)N(C)Cc1ccc(-c2noc(C(F)(F)F)n2)cc1 [Compound 4.99, N,N′-dimethyl-N′-[[4-[5-(trifluoromethyl)-1,2,4-oxadiazol-3-yl]phenyl]methyl] oxamide]
≥ 80%: inhibition at 20 ppm [1] | pest or weed control at 200 ppm [2] | pest or weed control at 200 ppm [3]

CCNC(=O)C(=O)N(Cc1ccc(-c2noc(C(F)(F)F)n2)cc1)OC [Compound 4.66, N-ethyl-N′-methoxy-N′-[[4-[5-(trifluoromethyl)-1,2,4-oxadiazol-3-yl]phenyl]methyl] oxamide]
≥ 80%: inhibition at 20 ppm [1] | pest or weed control at 200 ppm [2] | pest or weed control at 200 ppm [3]

CCOC(=O)C(=O)N(Cc1ccc(-c2noc(C(F)(F)F)n2)cc1)OC [Compound 3.10, ethyl 2-[methoxy-[[4-[5-(trifluoromethyl)-1,2,4-oxadiazol-3-yl]phenyl]methyl]amino]-2-oxo-acetate]
≥ 80%: inhibition at 20 ppm [1] | pest or weed control at 200 ppm [2] | pest or weed control at 200 ppm [3]

CNC(=O)C(=O)N(Cc1ccc(-c2noc(C(F)(F)F)n2)cc1)C1CC1 [Compound 4.100, N′-cyclopropyl-N-methyl-N′-[[4-[5-(trifluoromethyl)-1,2,4-oxadiazol-3-yl]phenyl]methyl] oxamide]
≥ 80%: inhibition at 20 ppm [1] | pest or weed control at 200 ppm [2] | pest or weed control at 200 ppm [3]

CON(Cc1ccc(-c2noc(C(F)(F)F)n2)cc1)C(=O)C(=O)NCC(C)C [Compound 4.67, N-isobutyl-N′-methoxy-N′-[[4-[5-(trifluoromethyl)-1,2,4-oxadiazol-3-yl]phenyl]methyl] oxamide]
≥ 80%: inhibition at 20 ppm [1] | pest or weed control at 200 ppm [2] | pest or weed control at 200 ppm [3]

NC(=O)C(=O)N(Cc1ccc(-c2noc(C(F)(F)F)n2)cc1)CC1CCCO1 (stereo not drawn) [Compound 4.14, N′-(tetrahydrofuran-2-ylmethyl)-N′-[[4-[5-(trifluoromethyl)-1,2,4-oxadiazol-3-yl]phenyl]methyl] oxamide]
≥ 80%: inhibition at 20 ppm [1] | pest or weed control at 200 ppm [2] | pest or weed control at 200 ppm [3]

CONC(=O)C(=O)N(Cc1ccc(-c2noc(C(F)(F)F)n2)cc1)OC [Compound 4.78, N,N′-dimethoxy-N′-[[4-[5-(trifluoromethyl)-1,2,4-oxadiazol-3-yl]phenyl]methyl] oxamide]
≥ 80%: inhibition at 20 ppm [1] | pest or weed control at 200 ppm [2] | pest or weed control at 200 ppm [3]

CCN(Cc1ccc(-c2noc(C(F)(F)F)n2)cc1)C(=O)C(=O)NOC [Compound 4.107, N'-ethyl-N-methoxy-N′-N′-[[4-[5-(trifluoromethyl)-1,2,4-oxadiazol-3-yl]phenyl]methyl] oxamide]
≥ 80%: inhibition at 20 ppm [1] | pest or weed control at 200 ppm [2] | pest or weed control at 200 ppm [3]

CCCC(=O)C(=O)N(CCOC)Cc1ccc(-c2noc(C(F)(F)F)n2)cc1 [Compound 1.9, N-(2-methoxyethyl)-2-oxo-N-[[4-[5-(trifluoromethyl)-1,2,4-oxadiazol-3-yl]phenyl]methyl]pentanamide]
≥ 80%: inhibition at 20 ppm [1] | pest or weed control at 200 ppm [2] | pest or weed control at 200 ppm [3]
